Assay [1] deals with Tyrosine-protein kinase Fyn (Homo sapiens) (UniProt P06241). Kind of assay: Inhibition of recombinant full length human C-terminal His-tagged FYN expressed in baculovirus at 500 nM by Z'-LYTE assay.
The target of assay [2] is T1, Serine/threonine-protein kinase Nek1 (Homo sapiens) (UniProt Q96PY6).
T1 sequence (whole entry): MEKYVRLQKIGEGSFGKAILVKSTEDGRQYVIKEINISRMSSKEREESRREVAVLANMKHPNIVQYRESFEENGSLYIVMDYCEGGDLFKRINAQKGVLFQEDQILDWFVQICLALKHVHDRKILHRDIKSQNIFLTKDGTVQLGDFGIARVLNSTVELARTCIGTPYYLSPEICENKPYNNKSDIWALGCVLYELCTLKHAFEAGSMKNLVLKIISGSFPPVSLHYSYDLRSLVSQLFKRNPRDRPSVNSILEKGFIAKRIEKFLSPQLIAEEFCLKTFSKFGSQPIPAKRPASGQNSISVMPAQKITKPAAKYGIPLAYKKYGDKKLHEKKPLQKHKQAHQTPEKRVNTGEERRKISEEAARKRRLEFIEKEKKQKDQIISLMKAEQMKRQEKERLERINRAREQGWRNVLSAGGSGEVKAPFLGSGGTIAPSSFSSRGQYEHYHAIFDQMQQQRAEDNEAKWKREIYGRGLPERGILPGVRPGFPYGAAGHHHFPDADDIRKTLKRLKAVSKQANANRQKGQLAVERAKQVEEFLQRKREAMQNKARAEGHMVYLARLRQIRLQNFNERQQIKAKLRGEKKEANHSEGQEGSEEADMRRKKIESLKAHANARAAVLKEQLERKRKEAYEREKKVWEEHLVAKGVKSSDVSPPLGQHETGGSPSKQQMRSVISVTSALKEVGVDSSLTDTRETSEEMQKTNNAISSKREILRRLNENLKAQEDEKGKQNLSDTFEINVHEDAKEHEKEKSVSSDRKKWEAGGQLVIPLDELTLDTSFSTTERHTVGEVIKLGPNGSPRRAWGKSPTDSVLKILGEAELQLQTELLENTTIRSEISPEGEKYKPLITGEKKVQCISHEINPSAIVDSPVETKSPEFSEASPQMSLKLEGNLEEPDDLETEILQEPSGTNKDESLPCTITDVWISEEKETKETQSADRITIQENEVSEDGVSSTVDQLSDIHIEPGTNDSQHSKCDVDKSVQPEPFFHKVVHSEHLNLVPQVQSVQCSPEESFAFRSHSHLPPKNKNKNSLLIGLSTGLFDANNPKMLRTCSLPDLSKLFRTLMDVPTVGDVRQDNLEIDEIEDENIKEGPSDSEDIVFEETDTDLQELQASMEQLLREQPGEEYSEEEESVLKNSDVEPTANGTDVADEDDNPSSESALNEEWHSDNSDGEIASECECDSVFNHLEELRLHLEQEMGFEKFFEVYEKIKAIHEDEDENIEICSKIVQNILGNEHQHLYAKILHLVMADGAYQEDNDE
The assay can be described thus: Inhibition of GST tagged recombinant human NEK1 catalytic domain (1 to 505 residues) expressed in baculovirus at 500 nM by Z'-LYTE assay.

In assay [3] the target is Angiopoietin-1 receptor (Homo sapiens) (UniProt Q02763). The assay can be described thus: Inhibition of GST tagged recombinant human Tie2 cytoplasmic domain (817 to 1101 residues) expressed in baculovirus at 500 nM by Z'-LYTE assay.
Chain of Angiopoietin-1 receptor (Homo sapiens) (Q02763 whole entry, the tested form may be a part): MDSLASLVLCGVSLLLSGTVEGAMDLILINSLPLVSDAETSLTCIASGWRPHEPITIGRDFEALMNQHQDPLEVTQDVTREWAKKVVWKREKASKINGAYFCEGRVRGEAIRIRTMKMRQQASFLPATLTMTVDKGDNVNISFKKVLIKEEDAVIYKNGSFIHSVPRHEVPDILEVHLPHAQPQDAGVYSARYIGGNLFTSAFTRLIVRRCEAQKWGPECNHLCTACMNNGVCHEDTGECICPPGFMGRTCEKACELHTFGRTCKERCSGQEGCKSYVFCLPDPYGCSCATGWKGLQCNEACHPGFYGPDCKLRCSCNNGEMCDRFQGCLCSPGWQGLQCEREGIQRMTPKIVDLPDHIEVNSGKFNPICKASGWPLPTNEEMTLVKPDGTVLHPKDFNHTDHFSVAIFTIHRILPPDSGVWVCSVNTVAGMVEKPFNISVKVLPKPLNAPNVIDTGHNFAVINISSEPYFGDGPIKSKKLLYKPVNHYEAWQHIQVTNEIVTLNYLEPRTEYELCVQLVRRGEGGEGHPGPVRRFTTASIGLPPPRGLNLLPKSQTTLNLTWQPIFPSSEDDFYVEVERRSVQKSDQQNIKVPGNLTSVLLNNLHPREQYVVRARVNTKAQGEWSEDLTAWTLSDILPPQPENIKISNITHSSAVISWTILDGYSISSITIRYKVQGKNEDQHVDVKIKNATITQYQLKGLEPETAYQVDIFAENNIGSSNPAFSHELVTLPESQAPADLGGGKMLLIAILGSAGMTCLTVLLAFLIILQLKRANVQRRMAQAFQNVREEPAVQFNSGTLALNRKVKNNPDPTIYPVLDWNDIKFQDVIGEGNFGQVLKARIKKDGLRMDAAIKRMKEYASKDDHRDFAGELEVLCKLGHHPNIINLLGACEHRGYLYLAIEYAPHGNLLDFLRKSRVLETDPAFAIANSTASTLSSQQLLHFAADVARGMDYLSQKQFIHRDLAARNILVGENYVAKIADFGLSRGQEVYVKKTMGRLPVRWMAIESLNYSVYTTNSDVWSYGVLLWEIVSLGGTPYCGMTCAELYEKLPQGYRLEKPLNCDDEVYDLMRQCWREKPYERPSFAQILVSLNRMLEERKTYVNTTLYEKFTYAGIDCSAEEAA
Assay [4] has as its target T2, Inhibitor of nuclear factor kappa-B kinase subunit beta (Homo sapiens) (UniProt O14920).
T2 sequence (whole entry): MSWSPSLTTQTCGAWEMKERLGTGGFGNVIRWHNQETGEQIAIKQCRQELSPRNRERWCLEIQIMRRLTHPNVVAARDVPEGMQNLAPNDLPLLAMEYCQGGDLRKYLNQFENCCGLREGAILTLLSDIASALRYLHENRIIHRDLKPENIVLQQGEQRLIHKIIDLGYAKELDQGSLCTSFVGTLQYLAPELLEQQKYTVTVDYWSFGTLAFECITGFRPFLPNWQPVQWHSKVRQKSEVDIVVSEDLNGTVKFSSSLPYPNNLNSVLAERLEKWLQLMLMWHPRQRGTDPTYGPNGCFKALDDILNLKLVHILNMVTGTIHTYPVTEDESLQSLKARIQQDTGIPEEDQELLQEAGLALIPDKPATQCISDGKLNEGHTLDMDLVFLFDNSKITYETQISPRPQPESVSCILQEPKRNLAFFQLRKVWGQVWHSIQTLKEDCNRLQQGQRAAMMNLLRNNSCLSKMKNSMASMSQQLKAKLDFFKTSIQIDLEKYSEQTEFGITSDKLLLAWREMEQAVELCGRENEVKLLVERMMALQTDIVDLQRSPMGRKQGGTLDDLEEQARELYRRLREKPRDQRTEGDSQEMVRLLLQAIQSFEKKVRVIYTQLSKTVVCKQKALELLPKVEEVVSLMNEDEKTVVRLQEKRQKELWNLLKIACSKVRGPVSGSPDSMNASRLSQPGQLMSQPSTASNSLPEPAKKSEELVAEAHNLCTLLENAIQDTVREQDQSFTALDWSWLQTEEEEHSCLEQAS
Kind of assay: Inhibition of GST tagged recombinant full length human IKK beta expressed in baculovirus at 500 nM by Z'-LYTE assay.

Assay [5] concerns the target Tyrosine-protein kinase Blk (Homo sapiens) (UniProt P51451). Kind of assay: Inhibition of His tagged recombinant full length human BLK expressed in baculovirus at 500 nM by Z'-LYTE assay.
Assay [6] addresses Tyrosine-protein kinase Fgr (Homo sapiens) (UniProt P09769). Kind of assay: Inhibition of recombinant full length human C-terminal His-tagged FGR expressed in baculovirus at 500 nM by Z'-LYTE assay.
Assay [7] deals with Receptor tyrosine-protein kinase erbB-4 (Homo sapiens) (UniProt Q15303). The assay can be described thus: Inhibition of GST tagged recombinant human ERBB4 cytoplasmic domain (708 to 993 residues) expressed in baculovirus at 500 nM by Z'-LYTE assay.
Assay [8] has as its target Macrophage colony-stimulating factor 1 receptor (Homo sapiens) (UniProt P07333). Kind of assay: Inhibition of His tagged recombinant human FMS cytoplasmic domain (538 to 910 residues) expressed in baculovirus at 500 nM by Z'-LYTE assay.
In assay [9] the target is Serine/threonine-protein kinase PLK1 (Homo sapiens) (UniProt P53350). Kind of assay: Inhibition of His tagged recombinant full length human PLK1 expressed in baculovirus at 500 nM by Z'-LYTE assay.
Chain of Serine/threonine-protein kinase PLK1 (Homo sapiens) (P53350 whole entry): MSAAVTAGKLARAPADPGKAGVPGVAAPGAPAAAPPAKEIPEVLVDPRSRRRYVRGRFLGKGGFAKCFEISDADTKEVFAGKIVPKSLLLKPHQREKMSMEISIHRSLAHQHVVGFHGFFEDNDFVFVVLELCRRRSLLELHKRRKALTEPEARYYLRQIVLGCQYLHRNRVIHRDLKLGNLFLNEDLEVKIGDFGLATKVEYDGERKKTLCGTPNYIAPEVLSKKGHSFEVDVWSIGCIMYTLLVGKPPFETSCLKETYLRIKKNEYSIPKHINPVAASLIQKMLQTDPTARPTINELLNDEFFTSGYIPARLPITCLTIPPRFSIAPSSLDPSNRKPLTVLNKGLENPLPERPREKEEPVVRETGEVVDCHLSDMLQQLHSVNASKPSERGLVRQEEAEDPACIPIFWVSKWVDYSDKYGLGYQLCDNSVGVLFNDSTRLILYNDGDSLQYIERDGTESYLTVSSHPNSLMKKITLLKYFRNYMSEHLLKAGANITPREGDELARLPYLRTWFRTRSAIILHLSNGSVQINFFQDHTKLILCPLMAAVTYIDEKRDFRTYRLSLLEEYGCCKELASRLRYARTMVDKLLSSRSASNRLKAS
The target of assay [10] is Mitogen-activated protein kinase 14 (Homo sapiens) (UniProt Q16539). The assay can be described thus: Inhibition of GST tagged recombinant full length human p38 alpha expressed in Escherichia coli at 500 nM by Z'-LYTE assay.
Chain of Mitogen-activated protein kinase 14 (Homo sapiens) (Q16539 whole entry): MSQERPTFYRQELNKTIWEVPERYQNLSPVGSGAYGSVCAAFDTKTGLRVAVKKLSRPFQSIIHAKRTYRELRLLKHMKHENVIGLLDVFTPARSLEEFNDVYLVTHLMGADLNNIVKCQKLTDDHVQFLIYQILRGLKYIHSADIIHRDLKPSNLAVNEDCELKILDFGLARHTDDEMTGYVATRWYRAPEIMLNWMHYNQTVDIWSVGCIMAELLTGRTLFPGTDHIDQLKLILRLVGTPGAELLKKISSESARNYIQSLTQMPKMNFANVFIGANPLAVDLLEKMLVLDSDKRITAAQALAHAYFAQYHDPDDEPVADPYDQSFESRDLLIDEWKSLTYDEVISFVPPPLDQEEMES
Assay [11] concerns the target Mitogen-activated protein kinase 8 (Homo sapiens) (UniProt P45983). The assay can be described thus: Inhibition of His tagged recombinant full length human JNK1 expressed in baculovirus at 500 nM by Z'-LYTE assay.
In assay [12] the target is Mitogen-activated protein kinase 1 (Homo sapiens) (UniProt P28482). The assay can be described thus: Inhibition of GST tagged recombinant full length human ERK2 expressed in Escherichia coli at 500 nM by Z'-LYTE assay.
Chain of Mitogen-activated protein kinase 1 (Homo sapiens) (P28482 whole entry): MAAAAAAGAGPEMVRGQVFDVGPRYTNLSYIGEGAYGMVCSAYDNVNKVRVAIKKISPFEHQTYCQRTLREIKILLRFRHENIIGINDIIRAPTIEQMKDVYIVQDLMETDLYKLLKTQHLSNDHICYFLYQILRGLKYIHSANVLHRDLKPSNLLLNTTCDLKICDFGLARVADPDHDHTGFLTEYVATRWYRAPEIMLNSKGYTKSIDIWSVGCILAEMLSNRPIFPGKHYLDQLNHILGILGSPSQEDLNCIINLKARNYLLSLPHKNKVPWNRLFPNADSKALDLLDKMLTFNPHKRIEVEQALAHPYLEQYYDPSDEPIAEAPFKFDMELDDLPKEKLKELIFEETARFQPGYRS

Chain of Tyrosine-protein kinase Blk (Homo sapiens) (P51451 2-505 limits assumed): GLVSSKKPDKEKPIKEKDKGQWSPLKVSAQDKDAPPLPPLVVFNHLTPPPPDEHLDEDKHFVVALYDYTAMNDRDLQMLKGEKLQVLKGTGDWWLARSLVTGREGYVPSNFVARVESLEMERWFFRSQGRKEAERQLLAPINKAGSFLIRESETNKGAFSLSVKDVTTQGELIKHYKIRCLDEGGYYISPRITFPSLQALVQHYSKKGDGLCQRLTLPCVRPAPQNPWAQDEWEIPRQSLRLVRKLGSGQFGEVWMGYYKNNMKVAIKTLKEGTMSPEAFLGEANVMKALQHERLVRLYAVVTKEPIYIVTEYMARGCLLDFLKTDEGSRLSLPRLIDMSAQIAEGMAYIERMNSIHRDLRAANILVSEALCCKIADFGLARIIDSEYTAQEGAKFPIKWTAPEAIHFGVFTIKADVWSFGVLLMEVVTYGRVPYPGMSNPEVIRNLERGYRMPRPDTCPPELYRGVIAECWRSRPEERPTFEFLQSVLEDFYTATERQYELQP
Chain of Macrophage colony-stimulating factor 1 receptor (Homo sapiens) (P07333 whole entry, the tested form may be a part): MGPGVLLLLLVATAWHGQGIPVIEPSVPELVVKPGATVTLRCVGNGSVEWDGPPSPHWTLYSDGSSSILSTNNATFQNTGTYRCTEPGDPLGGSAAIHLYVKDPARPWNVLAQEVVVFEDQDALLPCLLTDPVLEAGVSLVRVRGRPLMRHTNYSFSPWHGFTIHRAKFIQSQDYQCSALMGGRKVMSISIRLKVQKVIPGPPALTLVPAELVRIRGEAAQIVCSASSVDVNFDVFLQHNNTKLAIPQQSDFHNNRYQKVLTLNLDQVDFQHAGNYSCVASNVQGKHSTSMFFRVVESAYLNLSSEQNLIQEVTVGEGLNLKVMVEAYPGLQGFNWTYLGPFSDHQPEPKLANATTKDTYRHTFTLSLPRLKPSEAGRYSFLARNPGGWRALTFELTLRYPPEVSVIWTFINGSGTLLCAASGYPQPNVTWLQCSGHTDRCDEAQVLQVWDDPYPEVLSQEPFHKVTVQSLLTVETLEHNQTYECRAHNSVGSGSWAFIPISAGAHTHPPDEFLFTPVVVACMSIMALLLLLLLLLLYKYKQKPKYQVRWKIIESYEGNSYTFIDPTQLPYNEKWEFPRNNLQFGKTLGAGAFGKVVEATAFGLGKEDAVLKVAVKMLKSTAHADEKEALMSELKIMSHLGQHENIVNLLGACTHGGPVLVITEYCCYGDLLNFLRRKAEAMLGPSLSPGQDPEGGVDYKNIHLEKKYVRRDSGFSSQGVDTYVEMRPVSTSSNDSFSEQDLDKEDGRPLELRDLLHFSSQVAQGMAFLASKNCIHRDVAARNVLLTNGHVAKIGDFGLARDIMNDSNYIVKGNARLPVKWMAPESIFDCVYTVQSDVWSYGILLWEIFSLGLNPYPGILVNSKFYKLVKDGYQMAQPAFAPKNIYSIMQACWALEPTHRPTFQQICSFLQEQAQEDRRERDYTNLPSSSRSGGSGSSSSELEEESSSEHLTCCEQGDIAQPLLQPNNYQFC
Chain of Tyrosine-protein kinase Fyn (Homo sapiens) (P06241 2-537 limits assumed): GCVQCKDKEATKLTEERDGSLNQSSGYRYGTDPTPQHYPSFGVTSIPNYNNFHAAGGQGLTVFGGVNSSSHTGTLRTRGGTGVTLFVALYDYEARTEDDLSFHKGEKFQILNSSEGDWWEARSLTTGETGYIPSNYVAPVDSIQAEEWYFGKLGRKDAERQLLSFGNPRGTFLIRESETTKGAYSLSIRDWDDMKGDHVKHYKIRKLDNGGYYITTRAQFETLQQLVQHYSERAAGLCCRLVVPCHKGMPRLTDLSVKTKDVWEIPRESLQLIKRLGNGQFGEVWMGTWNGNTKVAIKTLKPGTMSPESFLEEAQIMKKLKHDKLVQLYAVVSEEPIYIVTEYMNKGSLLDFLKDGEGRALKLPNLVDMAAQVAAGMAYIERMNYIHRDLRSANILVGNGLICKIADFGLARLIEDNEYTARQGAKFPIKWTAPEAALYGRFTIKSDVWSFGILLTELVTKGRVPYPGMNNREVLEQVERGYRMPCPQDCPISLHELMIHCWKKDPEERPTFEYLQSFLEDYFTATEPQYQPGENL
Chain of Mitogen-activated protein kinase 8 (Homo sapiens) (P45983 whole entry): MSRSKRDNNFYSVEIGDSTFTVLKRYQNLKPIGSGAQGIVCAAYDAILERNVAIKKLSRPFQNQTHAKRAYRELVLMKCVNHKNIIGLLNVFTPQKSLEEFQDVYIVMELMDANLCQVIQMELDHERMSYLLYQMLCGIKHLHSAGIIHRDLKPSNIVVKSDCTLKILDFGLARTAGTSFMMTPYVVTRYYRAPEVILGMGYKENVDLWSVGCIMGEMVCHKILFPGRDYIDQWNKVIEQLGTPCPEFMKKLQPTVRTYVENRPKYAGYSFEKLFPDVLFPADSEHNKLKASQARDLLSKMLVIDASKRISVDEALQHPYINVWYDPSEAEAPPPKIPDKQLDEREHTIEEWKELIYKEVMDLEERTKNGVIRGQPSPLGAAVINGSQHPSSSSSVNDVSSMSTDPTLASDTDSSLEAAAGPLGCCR

As a reminder, the inhibition is the change of the read-out against control, counted positive when it falls. Take `C[C@@H](Nc1ncnc2oc(-c3ccc(NCCN(C)C)cc3)cc12)c1ccccc1`: the inhibition in assay [1] was 13%; in assay [2], 3%; in [3], 9%; in assay [4] it was 2%; in [5] it was 3%; in [6] it was 60%. The inhibition is 32% in [7]; 79% in assay [8]; 0% in [9]; 15% in assay [10]; 1% in assay [11]; -3% in assay [12].
On to `C[C@@H](Nc1ncnc2oc(-c3ccc(NCCN4CCCCC4)cc3)cc12)c1ccccc1`, for which the inhibition in assay [1] was 12%; in assay [2] it was -1%; in assay [3], 8%; in assay [4], 3%; in assay [5], 0%; in assay [6] it was 56%. For the same compound, the inhibition in assay [7] was 18%; in [8], 78%; in [9], -5%; in assay [10], 16%; in assay [11], 6%; in [12], -1%.
On to `C#Cc1cccc(Nc2ncnc3cc(OCCOC)c(OCCOC)cc23)c1`, for which the inhibition in assay [2] is -8%; in [4], -5%; in [9] it was -9%.

Values taken from ChEMBL document CHEMBL3856204, “Chiral 6-aryl-furo[2,3-d]pyrimidin-4-amines as EGFR inhibitors” (Eur J Med Chem, 2016).
